Counter-ions that a name gives are not always drawn.
Experiments:
[1] = test system: subjects undergoing primary unilateral TKA; assay: Total postsurgical opioid consumption (OMED) and opioid-free status; format: in vivo, human; conditions: any time interval up to 96 hours post-surgery
Protocol: (§1) This was a Phase 3, multicenter, randomized, double blind, active controlled study of 167 subjects undergoing primary unilateral TKA under spinal anesthesia. The study consisted of 2 cohorts that were enrolled in parallel. Cohort 1 enrolled 46 subjects to obtain information on the PK profile, pharmacodynamics (PD), efficacy, and safety. Cohort 2 enrolled 121 subjects to obtain information on efficacy and safety. An adaptive study design was used in this study, with an interim analysis conducted by an unblinded independent review committee to evaluate sample size assumptions and futility. […]
(§2) An unscheduled pain intensity assessment using the NRS (measured as “On a scale from 0 to 10, where 0 equals no pain and 10 equals the worst possible pain, how much pain are you experiencing in your operative knee right now?”) was to be completed immediately prior to administration of any breakthrough pain medication up to 96 hours post-surgery. Medications were administered as needed; opioids were not to be given on a pre-determined schedule. […]
(§3) Total postsurgical opioid consumption in OMED from 0 to 96 hours was analyzed using an ANCOVA model. Time to first postsurgical opioid medication was analyzed using the Kaplan Meier survival method. […]

[2] = test system: sensory block and motor block; assay: Pharmacodynamic assessment of sensory and motor block (Cohort 1); format: in vivo, human
Protocol: (§4) This was a Phase 3, multicenter, randomized, double blind, active controlled study of 167 subjects undergoing primary unilateral TKA under spinal anesthesia. The study consisted of 2 cohorts that were enrolled in parallel. Cohort 1 enrolled 46 subjects to obtain information on the PK profile, pharmacodynamics (PD), efficacy, and safety. Cohort 2 enrolled 121 subjects to obtain information on efficacy and safety. An adaptive study design was used in this study, with an interim analysis conducted by an unblinded independent review committee to evaluate sample size assumptions and futility.
(§5) On the day of surgery, prior to surgery, subjects in Cohort 1 and Cohort 2 were randomized (1:1) to receive an adductor canal block with a single dose of either 10 mL EXPAREL (133 mg) admixed with 10 mL 0.5% bupivacaine HCl (50 mg; from hereon referred to as the EXP133-ADMIX arm) or 10 mL 0.5% bupivacaine HCl (50 mg) mixed with 10 mL normal saline (from hereon referred to as the BUP50 arm). The total dose volume was consistent (20 mL) for all subjects.
(§6) Efficacy assessments included pain intensity scores focused on the operative knee using the Numeric Rating Scale (NRS), total postsurgical opioid consumption in OMED, time to first opioid consumption post-surgery, and subject satisfaction using the International Pain Outcome (IPO). Additionally, blood samples for PK analysis (area under the curve [AUC], maximum plasma concentration [Cmax], time of maximum plasma concentration [Tmax], including early and late Cmax and Tmax (EXP133-ADMIX arm only), apparent terminal elimination half-life [t½e1], apparent clearance [CL/F], and apparent volume of distribution [Vd/F]) and PD assessment data (sensory and motor block) were collected from Cohort 1 subjects.
Pharmacodynamic endpoints included: duration of the sensory block and motor block; time to onset of sensory block and motor block; and time to offset of sensory block and motor block.

[3] = test system: subjects undergoing primary unilateral TKA; assay: Safety assessments (TEAEs, SAEs, vital signs, EKG); parameters: species or system human; conditions: in vivo
Text: Safety assessments included monitoring of AEs (including SAEs and adverse events of special interest [AESIs]), vital signs (temperature, resting heart rate, respiratory rate, oxygen saturation, and blood pressure), 12 lead EKG, and recording of concomitant medications.
Safety endpoints included incidence of treatment emergent adverse events and SAEs from start of the nerve block procedure through POD14; change from baseline in vital signs over time; and abnormal post-baseline EKG findings.
Adverse events and SAEs were recorded from the time of informed consent through POD14. Adverse events were coded using the Medical Dictionary for Regulatory Activities version 24.1 and summary tables were based on the Safety Analysis Set. A subject data listing was provided for all AEs, which included the reported term, preferred term, system organ class, treatment-emergent adverse event flag, study day of AE onset, AE start/stop date and time, relationship to study drug, frequency, severity, action taken with subject, outcome, and seriousness criteria.
Vital signs and their change from baseline were summarized with mean, median, and standard deviation at baseline and at each scheduled time point. The frequency and percentage of EKG findings (normal, abnormal/not clinically significant, and abnormal/clinically significant) were summarized at screening and each scheduled time point.
An AE can be defined as any untoward medical occurrence associated with the use of a drug in humans, whether or not considered drug related. An AE (also referred to as an adverse experience) could be any unfavorable and unintended sign (e.g., abnormal laboratory finding), symptom, or disease temporally associated with the use of a drug, without any judgment about causality. An AE could arise from any use of the drug (e.g., off-label use in combination with another drug) and from any route of administration, formulation, or dose, including an overdose.
An AE that occurred after administration of the study treatment was considered a treatment-emergent adverse event (TEAE). A continuous AE with varying grades of severity was to be recorded as 1 AE. The highest grade of severity experienced by that subject during the course of the continuous AE was to be recorded.
Assessment of the relationship of the AE to study drug after careful medical consideration on a case-by-case basis. […]

[4] = test system: subjects undergoing primary unilateral TKA; assay: Time to first opioid consumption (rescue medication) post-surgery; format: in vivo, human
Protocol: as §1, §2, §3

[5] = Plasma bupivacaine pharmacokinetics (Cohort 1); format: in vivo, human
Protocol: as §4, §5, §6
Pharmacokinetic endpoints included area under the plasma concentration-versus-time curve, specifically from the time of dosing to the time of the last quantifiable concentration (AUC0-last) and AUC from the time of dosing to infinity (AUC0-∞); maximum plasma concentration (Cmax) and time of maximum plasma concentration (Tmax) for subjects treated with bupivacaine HCl; early and late Cmax and Tmax were determined for subjects treated with EXPAREL admixed with bupivacaine HCl (EXP133-ADMIX arm); t½e1; CL/F; Vd/F.

CCCCN1CCCCC1C(=O)Nc1c(C)cccc1C (stereo not drawn) [BUP50, bupivacaine HCl]
subjects opioid free [1]: No subjects | subjects in whom knee extension was not present ([2]; 8 hours post dose (first time point with majority)): 71.4% | median duration of sensory block ([2]; in vivo): 11.63 h | time by which all subjects regained normal sensory function ([2]; post-dose): ≤ 24 h | subjects with clinically significant abnormal EKG findings ([3]; human): 1 subjects | subjects with ≥1 TEAE ([3]; human): 88.8% | subjects with ≥1 TEAE related to study drug ([3]; human): 2 subjects | subjects discontinued from the study following SAEs [3]: One | median time to first rescue medication [4]: 3.63 h | AUC(0-inf) ([5]; human, in vivo): 7450 ng·h/mL | AUC(0-t) ([5]; human, in vivo): 7280 ng·h/mL | concentration at 60 h ([5]; human, in vivo): 43.2 ng/mL | median time of Cmax ([5]; human, in vivo): 0.65 h | shape of mean bupivacaine concentration over time ([5]; in vivo): a single peak | Cmax ([5]; plasma bupivacaine): 333.89 ng/mL
